The text below walks through data of patent US20140342931A1, “METHOD FOR PREDICTING RESPONSE TO ENDOCRINE THERAPY” (PAMGENE B.V., priority 2011, published 2014).

This test has as its system Estrogen Receptor alpha (ERα). The source says: Under tamoxifen, a known antagonist of the ERα, this phosphorylation affects the conformation of ERα and changes its orientation to the protein SRC-1. In this example we studied the effect of ERαSer305 phosphorylation on the binding of cofactors in transfected cells and in breast tumor specimens. We used the methods and coregulator peptide array as described in WO 2008/028978 containing 154 coregulator peptides (table 1).
ERαY/C-transfected U2OS cells were stimulated with cAMP to induce PKA-mediated ERα phosphorylation. The serine-to-alanine mutant ERαSer305Ala-Y/C was used as a negative control (FIG. 1).
The effect of PKA activation on peptide binding was also studied under tamoxifen conditions.

4-hydroxy-Tamoxifen [4OH-tamoxifen]: the “ERα binding to the control peptide (IDNR13) at saturating tamoxifen concentrations” value (concentration range up to 10^-5 M, ERα-wt and ERαSer305Ala, with or without cAMP (PKA activation)) was “largely blocked”. As to `C[C@]12CC[C@@H]3c4ccc(O)cc4CC[C@H]3[C@@H]1CC[C@@H]2O` [estradiol, 17-β-Estradiol], the “modulation of ERα binding to coregulators” value (concentration range of estradiol up to 10^−8 M, control peptide IDNR13 (NCOA1_677_700), wild type and Ser305Ala ERα, cAMP stimulated and control cells) is given as “dose dependent modulation”.
